According to patent US20050009005A1, “Methods of using quantitative lipid metabolome data” (Lipomics Technologies, Inc., priority 2001, published 2005):

Tested on: de novo fatty acid synthesis
Test: Lipid metabolite profile of plasma, heart, liver and inguinal adipose of CL316,243-treated mice (trial 2; Tables 7 and 8)
Type: in vivo
Conditions: for Total n9 / 14:0 / 16:0 / 16:1n7 / 18:0 / 18:1n7 / 18:1n9 / Saturates / Total n7 / Total nMole of FA: mean
From the text: It is understood that the described methods can be used to analyze lipid metabolites from other subjects, including particularly animals other than mice.
Mouse tissue and plasma samples were a generous donation to Lipomics Technologies, Inc., from Dr. Edward Leiter of the Jackson Laboratory (Bar Harbor, Me.). Samples included the plasma, heart, liver and inguinal adipose of mice treated with pharmaceuticals or their corresponding controls.
In trial 2, male, inbred NON mice were fed a control with or without the presence of the β-3 adrenergic agonist CL316,243 for four weeks (at 0.001% CL316,243 by weight in the dietary chow).
In both studies, five treated and five control mice were used. Following the treatments and the killing of the mice, tissues and plasma were taken, chilled to −80 ° C. and shipped to the analysis laboratory at Lipomics Technologies in a frozen state.
Tissue processing and lipid extraction, including provision of internal standards, was carried out essentially as described in Watkins et al. (J. Lipid Res. Papers in Press, 10.1184/jlf.M200169-JLF200, published August 16, 2002), and in co-owned international application PCT/US02/21426, entitled “GENERATING, VIEWING, INTERPRETING, AND UTILIZING A QUANTITATIVE DATABASE OF METABOLITES,” both of which are incorporated in their entirety herein by reference.
The separation of lipid classes was performed in some instance by preparative thin-layer chromatography (TLC). To remove any residual metal or other damaging contaminants on the TLC plates, each plate was washed prior to use. Washing the plates is a three-step process that involves impregnating each plate with ethylenediamine tetraacetic acid (EDTA) and rinsing the plates once with methanol and once with chloroform. Each plate is first impregnated with 1 mM EDTA, pH 5.5, by ascending development using the method of Ruiz (J. Lipid Res. 38, 1482-1489, 1997). After each plate was completely developed, it was dried in air overnight. Once dry, each plate was developed in methanol, dried, and developed in chloroform in the same direction as the development with EDTA. The washed plates were then dried in air. Just prior to use, each plate was activated by heating to 110° C. for 10 minutes.
To prepare the TLC chamber for chromatography, Whatman (Clifton, N.J.) filter paper was cut into 20×80-cm strips and wrapped around the inside wall of a 30×60×10-cm glass development chamber. One hundred milliliters of the appropriate mobile phase was added to the chamber, and the chambers were sealed and allowed to equilibrate. Chambers were considered equilibrated when the solvent front had completely ascended the filter paper. The mobile phase employed for the separation of phospholipid classes (lyso-phospholipids, sphingomyelin, phosphatidylcholine, phosphatidylserine, phosphatidylethanolamine and cardiolipin) was a modification of the solvent system described by Holub and Skeaf (“Nutritional regulation of cellular phosphatidylinositol,” in Methods in Enzymology, ed. Conn, P. M. (Academic Press, Inc., Orlando), pp. 234-243, 1987) consisting of chloroform/methanol/acetic acid/water (100:67:7:4, by volume).
For the separation of neutral lipid classes (free fatty acids, free sterols, triacylglycerides and cholesterol esters), a solvent system consisting of petroleum ether/diethyl ether/acetic acid (80:20:1, by volume) was used (Mangold, Thin Layer Chromatography—A Laboratory Handbook (Springer-Verlag, New York), 1969).
After the TLC plate was activated, the sample extracts were spotted onto the activated plate. As a general rule, samples were spotted at an estimated concentration such that no single lipid class was present at more than 25 jig per centimeter of plate width following chromatography. This ensured that the plate was not overloaded and minimized the risk of cross-contamination between lipid classes (cross-contamination is readily identified during sample analysis as each lipid class contains unique internal standards). […]

## C[C@H](Cc1ccc2c(c1)OC(C(=O)[O-])(C(=O)[O-])O2)NC[C@H](O)c1cccc(Cl)c1.[Na+].[Na+] [CL316,243]
Liver, lipid class PS/I
  Total n9: 5.4 percentage of total fatty acids
Liver, lipid class TAG
  14:0: 1.1 percentage of total fatty acids
  16:0: 32.1 percentage of total fatty acids
  16:1n7: 3.2 percentage of total fatty acids
  18:0: 3.3 percentage of total fatty acids
  18:1n7: 2.9 percentage of total fatty acids
  18:1n9: 34.1 percentage of total fatty acids
Plasma, CE
  14:0: 21.2 nanomoles per gram
  16:0: 114.4 nanomoles per gram
  16:1n7: 84.9 nanomoles per gram
  18:0: 16.5 nanomoles per gram
  18:1n7: 13.5 nanomoles per gram
  18:1n9: 194.2 nanomoles per gram
  Saturates: 162.9 nanomoles per gram
  Total n7: 98.4 nanomoles per gram
  Total n9: 198.7 nanomoles per gram
  Total nMole of FA: 2584.1 nanomoles per gram
Plasma, FFA
  14:0: 22.1 nanomoles per gram
  16:0: 102.3 nanomoles per gram
  16:1n7: 15.4 nanomoles per gram
  18:0: 36.9 nanomoles per gram
  18:1n7: 9.8 nanomoles per gram
  18:1n9: 160.6 nanomoles per gram
  Saturates: 167.7 nanomoles per gram
  Total n7: 25.2 nanomoles per gram
  Total n9: 163.1 nanomoles per gram
  Total nMole of FA: 424.7 nanomoles per gram
Plasma, LysoPC
  14:0: 2.9 nanomoles per gram
  16:0: 241.6 nanomoles per gram
  16:1n7: 4.8 nanomoles per gram
  18:0: 127.4 nanomoles per gram
  18:1n7: 6.9 nanomoles per gram
  18:1n9: 47.5 nanomoles per gram
  Saturates: 381.9 nanomoles per gram
  Total n7: 11.8 nanomoles per gram
  Total n9: 49.4 nanomoles per gram
  Total nMole of FA: 643.1 nanomoles per gram
Plasma, PC
  14:0: 5.5 nanomoles per gram
  16:0: 1121.4 nanomoles per gram
  16:1n7: 15.3 nanomoles per gram
  18:0: 670.9 nanomoles per gram
  18:1n7: 58.8 nanomoles per gram
  18:1n9: 309.6 nanomoles per gram
  Saturates: 1820.6 nanomoles per gram
  Total n7: 74.0 nanomoles per gram
  Total n9: 320.0 nanomoles per gram
  Total nMole of FA: 1928.9 nanomoles per gram
Plasma, PE
  14:0: 4.1 nanomoles per gram
  16:0: 33.9 nanomoles per gram
  16:1n7: 3.3 nanomoles per gram
  18:0: 28.2 nanomoles per gram
  18:1n7: 2.5 nanomoles per gram
  18:1n9: 31.5 nanomoles per gram
  Saturates: 74.0 nanomoles per gram
  Total n7: 5.8 nanomoles per gram
  Total n9: 33.4 nanomoles per gram
  Total nMole of FA: 106.7 nanomoles per gram
Plasma, PL
  14:0: 7.6 nanomoles per gram
  16:0: 1315.0 nanomoles per gram
  16:1n7: 20.3 nanomoles per gram
  18:0: 847.2 nanomoles per gram
  18:1n7: 69.7 nanomoles per gram
  18:1n9: 380.8 nanomoles per gram
  Saturates: 2221.2 nanomoles per gram
  Total n7: 90.0 nanomoles per gram
  Total n9: 429.4 nanomoles per gram
  Total nMole of FA: 2464.5 nanomoles per gram
Plasma, TAG
  14:0: 17.6 nanomoles per gram
  16:0: 219.3 nanomoles per gram
  16:1n7: 33.1 nanomoles per gram
  18:0: 45.7 nanomoles per gram
  18:1n7: 23.7 nanomoles per gram
  18:1n9: 268.3 nanomoles per gram
  Saturates: 295.4 nanomoles per gram
  Total n7: 56.8 nanomoles per gram
  Total n9: 276.2 nanomoles per gram
  Total nMole of FA: 344.8 nanomoles per gram
Plasma, lipid class CE
  14:0: 0.8 percentage of total fatty acids
  16:0: 4.5 percentage of total fatty acids
  16:1n7: 3.2 percentage of total fatty acids
  18:0: 0.7 percentage of total fatty acids
  18:1n7: 0.5 percentage of total fatty acids
  18:1n9: 7.5 percentage of total fatty acids
Plasma, lipid class FFA
  14:0: 5.7 percentage of total fatty acids
  16:0: 28.1 percentage of total fatty acids
  16:1n7: 3.2 percentage of total fatty acids
  18:0: 10.0 percentage of total fatty acids
  18:1n7: 2.1 percentage of total fatty acids
  18:1n9: 31.0 percentage of total fatty acids
Plasma, lipid class LY
  14:0: 0.5 percentage of total fatty acids
  16:0: 37.8 percentage of total fatty acids
  16:1n7: 0.7 percentage of total fatty acids
  18:0: 20.1 percentage of total fatty acids
  18:1n7: 1.0 percentage of total fatty acids
  18:1n9: 7.2 percentage of total fatty acids
Plasma, lipid class PC
  14:0: 0.1 percentage of total fatty acids
  16:0: 29.0 percentage of total fatty acids
  16:1n7: 0.4 percentage of total fatty acids
  18:0: 17.5 percentage of total fatty acids
  18:1n7: 1.5 percentage of total fatty acids
  18:1n9: 7.9 percentage of total fatty acids
Plasma, lipid class PE
  14:0: 1.9 percentage of total fatty acids
  16:0: 16.1 percentage of total fatty acids
  16:1n7: 1.4 percentage of total fatty acids
  18:0: 13.5 percentage of total fatty acids
  18:1n7: 1.1 percentage of total fatty acids
  18:1n9: 13.1 percentage of total fatty acids
Plasma, lipid class PL
  14:0: 0.2 percentage of total fatty acids
  16:0: 26.6 percentage of total fatty acids
  16:1n7: 0.4 percentage of total fatty acids
  18:0: 17.3 percentage of total fatty acids
  18:1n7: 1.4 percentage of total fatty acids
  18:1n9: 7.7 percentage of total fatty acids
Plasma, lipid class TAG
  14:0: 1.7 percentage of total fatty acids
  16:0: 21.1 percentage of total fatty acids
  16:1n7: 3.2 percentage of total fatty acids
  18:0: 4.4 percentage of total fatty acids
  18:1n7: 2.3 percentage of total fatty acids
  18:1n9: 25.8 percentage of total fatty acids
Male inbred NON mice, 0.001% CL316,243 in chow 4 weeks, vs controls (Tables 7 and 8)
  palmitoleic acid concentrations in most lipid classes in heart, liver, adipose and plasma: substantial decrease
